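Results reflect a 48-hour exposure of cells in 96-well plates to compound at five concentrations. TGI denotes the concentration required for complete inhibition of growth.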
What was measured:
Experiment in all cases: NCI tumour cell line growth inhibition, 48 h
SF-539 CNS = system: SF-539 CNS
KM12 colon = system: KM12 colon
DMS 273 small cell lung = system: DMS 273 small cell lung
NCI-H460 lung = system: NCI-H460 lung
EKVX NSCLC = system: EKVX NSCLC
HCT-15 colon = system: HCT-15 colon
RXF 393 renal = system: RXF 393 renal
DLD-1 colon = system: DLD-1 colon
XF 498 CNS = system: XF 498 CNS
SF-295 CNS = system: SF-295 CNS
LXFL 529 NSCLC = system: LXFL 529 NSCLC
KM20L2 colon = system: KM20L2 colon
OVCAR-4 ovarian = system: OVCAR-4 ovarian
SK-OV-3 ovarian = system: SK-OV-3 ovarian

SMILES	TGI (SF-539 CNS) [µM]	TGI (KM12 colon) [µM]	TGI (DMS 273 small cell lung) [µM]	TGI (NCI-H460 lung) [µM]	TGI (EKVX NSCLC) [µM]	TGI (HCT-15 colon) [µM]	TGI (RXF 393 renal) [µM]	TGI (DLD-1 colon) [µM]	TGI (XF 498 CNS) [µM]	TGI (SF-295 CNS) [µM]	TGI (LXFL 529 NSCLC) [µM]	TGI (KM20L2 colon) [µM]	TGI (OVCAR-4 ovarian) [µM]	TGI (SK-OV-3 ovarian) [µM]
C/C(=C1/N=C(c2cc([N+](=O)[O-])ccc2Cl)N(c2ccc(Br)cc2)C1=O)c1ccc(N(CCC#N)CCC#N)cc1C	> 100	> 100	43.8	> 100	> 100	58.7	> 100	32.2	> 100	> 100	> 100	> 100	> 100	> 100
COC1(OC)CC2C(=O)N(Cc3ccccc3)C1C(S(=O)(=O)c1ccccc1)C2C(C)S(=O)(=O)c1ccccc1 (configuration not stated)	> 100	> 100	> 100	> 100	> 100	> 100	> 100	> 100	> 100	> 100	> 100	> 100	> 100	> 100
NCCOc1ccc(/C(=C(/Cl)c2ccccc2)c2ccccc2)cc1	28.9	16.7	25.5	21.6	30.1	19.1	13.8	33.3	17.6	28.9	20	19.9	28.7	31.7
